Measured values: US9278996B2, “Dolastatin-10 derivative, method of producing the same and anticancer drug composition containing the same” (CELLTRION, INC., priority 2012, dated 2016)
Like-named read-outs stand apart in the source and are kept apart here.

Assays:
Assay type in all cases: cell-based
[1] = test system: breast cancer (MCF-7); experiment: Anticancer activity assay (WST-8 cell growth), MCF-7; conditions: read-out: IC50 (nM) MCF-7
Method: (§1) The compounds of the present invention were assayed for inhibitory activity against 7 cancer cell lines as breast cancer (BT-474), human epithelial cancer (A-431), non-small cell lung cancer (NCI-H460), colon cancer (HT-29), colon cancer (SW-620), breast cancer (MDA-MB-231) and breast cancer (MCF-7).
(§2) Briefly, a suspension of each cancer cell line was serially diluted, and plated at a density of 2˜3×10^3 cells/well into 96-well microplates, followed by incubation at 37° C. for 4 day in a 5% CO2 atmosphere. Cell growth in a monolayer was measured using WST-8 reagemt (Dojindo, Japan).
(§3) IC50 values of the compounds against the cancer cell lines were calculated as compound concentrations at which the cells were grown by 50% OD of the control.

[2] = test system: colon cancer (HT-29); experiment: Anticancer activity assay (WST-8 cell growth), HT-29; conditions: read-out: IC50 (nM) HT-29
Method: as §1, §2, §3

[3] = test system: breast cancer (MDA-MB-231); experiment: Anticancer activity assay (WST-8 cell growth), MDA-MB-231; conditions: read-out: IC50 (nM) MDA-MB-231
Method: as §1, §2, §3

[4] = test system: colon cancer (SW-620); experiment: Anticancer activity assay (WST-8 cell growth), SW-620; conditions: read-out: IC50 (nM) SW-620
Method: as §1, §2, §3

[5] = test system: non-small cell lung cancer (NCI-H460); experiment: Anticancer activity assay (WST-8 cell growth), NCI-H460; conditions: read-out: IC50 (nM) NCI-H460
Method: as §1, §2, §3

[6] = test system: breast cancer (BT-474); experiment: Anticancer activity assay (WST-8 cell growth), BT-474; conditions: Homo sapiens, read-out: IC50 (nM) BT-474
Method: as §1, §2, §3

[7] = test system: human epithelial cancer (A-431); experiment: Anticancer activity assay (WST-8 cell growth), A-431
Method: as §1, §2, §3

[8] = A-431, 96 h, read-out: IC50 (nM) A-431

COc1cccc2c1C(=O)c1c(O)c3c(c(O)c1C2=O)C[C@@](O)(C(=O)CO)C[C@@H]3O[C@H]1C[C@H](N)[C@H](O)[C@H](C)O1 [Doxorubcin, reference compound] was tested, and the IC50 ([1]; MCF-7 cells, 4 day incubation, WST-8) was 460 nM, the IC50 ([2]; HT-29 cells, 4 day incubation, WST-8) was 1.81 nM and the IC50 ([3]; MDA-MB-231 cells, 4 day incubation, WST-8) was 850 nM. The IC50 ([4]; SW-620 cells, 4 day incubation, WST-8) was 290 nM and the IC50 ([5]; NCI-H460 cells, 4 day incubation, WST-8) was 150 nM.
With CC[C@H](C)[C@@H]([C@@H](CC(=O)N1C[C@H](OC)C[C@H]1[C@H](OC)[C@@H](C)C(=O)NCC(=O)c1ccc(OC)cc1)OC)N(C)C(=O)[C@@H](NC(=O)[C@@H](NC)C(C)C)C(C)C (stereo in doubt) [Compound I-5, (2S)—N-((3R,4S)-3-methoxy-1-((2R,4R)-4-methoxy-2-((1R,2R)-1-methoxy-3-((2-(4-methoxyphenyl)-2-oxoethyl)amino)-2-methyl-3-oxopropyl)pyrrolidin-1-yl)-5-methyl-1-oxoheptan-4-yl)-N,3-dimethyl-2-((S)-3-methyl-2-(methylamino)butaneamido)butanamide] the IC50 ([6]; BT-474, 96 h) was 0.53 nM and the IC50 [7, 8] was 61.2 nM.
CC[C@H](C)[C@@H]([C@@H](CC(=O)N1C[C@H](OC)CC1[C@H](OC)[C@@H](C)C(=O)NCCc1cc(F)c(Cl)cc1Cl)OC)N(C)C(=O)[C@@H](NC(=O)[C@@H](NC)C(C)C)C(C)C (stereo partly drawn) [Compound I-4] showed an IC50 ([6]; BT-474, 96 h) of 2.44 nM and an IC50 [7, 8] of 21.1 nM.
For CC[C@H](C)[C@@H]([C@@H](CC(=O)N1CC(=O)C[C@@H]1[C@H](OC)[C@@H](C)C(=O)NCCc1ccccc1)OC)N(C)C(=O)[C@@H](NC(=O)[C@H](C(C)C)N(C)C)C(C)C [Compound I-9, (S)-2-((S)-2-(dimethylamino)-3-methylbutaneamido)-N-((3R,4S,5S)-3-methoxy-1-((R)-2-((1R,2R)-1-methoxy-2-methyl-3-oxo-3-(phenethylamino)propyl)-4-oxopyrrolidin-1-yl)-5-methyl-1-oxoheptan-4-yl)-N,3-dimethylbutanamide], the IC50 ([1]; Homo sapiens, MCF7, 96 h) was 27 nM, the IC50 ([4]; Homo sapiens, SW-620, 96 h) was 27.7 nM and the IC50 ([6]; BT-474, 96 h) was 5.23 nM. The IC50 ([5]; Homo sapiens, NCI-H460, 96 h) was 10.9 nM.
CC(=O)O[C@H]1C(=O)[C@@]2(C)[C@H]([C@H](OC(=O)c3ccccc3)[C@]3(O)C[C@H](OC(=O)[C@H](O)[C@@H](NC(=O)c4ccccc4)c4ccccc4)C(C)=C1C3(C)C)[C@]1(OC(C)=O)CO[C@@H]1C[C@@H]2O [Paclitaxel, reference compound] was tested, and the IC50 ([1]; Homo sapiens, MCF7, 96 h, MCF-7 cells, 4 day incubation, WST-8) was 27.1 nM, the IC50 ([2]; Homo sapiens, 96 h, HT-29 cells, 4 day incubation, WST-8) was 19.5 nM and the IC50 ([3]; Homo sapiens, 96 h, MDA-MB-231 cells, 4 day incubation, WST-8) was 90 nM. The IC50 ([4]; Homo sapiens, 96 h, SW-620 cells, 4 day incubation, WST-8) was 26.8 nM, the IC50 ([6]; 96 h, BT-474 cells, 4 day incubation, WST-8) was 14.4 nM and the IC50 ([7]; 96 h, A-431 cells, 4 day incubation, WST-8, read-out: IC50 (nM) A-431) was 442 nM. The IC50 ([5]; Homo sapiens, 96 h, NCI-H460 cells, 4 day incubation, WST-8) was 26.8 nM.
With CC[C@H](C)[C@@H]([C@@H](CC(=O)N1C[C@H](O)C[C@@H]1[C@H](OC)[C@@H](C)C(=O)NCCc1ccccc1)OC)N(C)C(=O)[C@@H](NC(=O)[C@H](C(C)C)N(C)C)C(C)C [Compound I-8, (S)-2-((S)-2-(dimethylamino)-3-methylbutaneamido)-N-((3R,4S,5S)-1-((2R,4R)-4-hydroxy-2-((1R,2R)-1-methoxy-2-methyl-3-oxo-3-(phenethylamino)propyl)pyrrolidin-1-yl)-3-methoxy-5-methyl-1-oxoheptan-4-yl)-N,3-dimethylbutanamide] the IC50 ([1]; Homo sapiens, MCF7, 96 h) was 27 nM, the IC50 ([4]; Homo sapiens, SW-620, 96 h) was 2.9 nM and the IC50 ([6]; BT-474, 96 h) was 0.68 nM. It also gave an IC50 ([5]; Homo sapiens, NCI-H460, 96 h) of 1.5 nM.
For CC[C@H](C)[C@@H]([C@@H](CC(=O)N1C[C@H](OC)C[C@H]1[C@H](OC)[C@@H](C)C(=O)NCC(O)c1ccccc1)OC)N(C)C(=O)[C@@H](NC(=O)[C@@H](NC)C(C)C)C(C)C (stereo partly drawn) [Compound I-35, (2S)—N-((3R,4S)-1-((2S,4R)-2-((1R,2R)-3-(2-(2-hydroxy-2-phenylethyl)amino)-1-methoxy-2-methyl-3-oxopropyl)-4-methoxypyrrolidin-1-yl)-3-methoxy-5-methyl-1-oxoheptan-4-yl)-N,3-dimethyl-2-((S)-3-methyl-2-(methylamino)butaneamido)butanamide], the IC50 ([2]; Homo sapiens, HT-29, 96 h) was 4.2 nM, the IC50 ([4]; Homo sapiens, SW-620, 96 h) was 2.1 nM and the IC50 ([6]; BT-474, 96 h) was 0.23 nM. It also gave an IC50 ([5]; Homo sapiens, NCI-H460, 96 h) of 1.5 nM.
Compound CC[C@H](C)[C@@H]([C@@H](CC(=O)N1C[C@@H](OC)C[C@H]1[C@H](OC)[C@@H](C)C(=O)NCCc1ccccc1)OC)N(C)C(=O)[C@@H](NC(=O)[C@@H](NC)C(C)C)C(C)C [Compound I-33, (2S)—N-((3R,4S)-3-methoxy-1-((2S,45)-4-methoxy-2-((1R,2R)-1-methoxy-2-methyl-3-oxo-3-(phenethylamino)propyl)pyrrolidin-1-yl)-5-methyl-1-oxoheptan-4-yl)-N,3-dimethyl-2-((S)-3-methyl-2-(methylamino)butaneamido)butanamide] has an IC50 ([1]; Homo sapiens, MCF7, 96 h) of 1.82 nM, an IC50 ([2]; Homo sapiens, HT-29, 96 h) of 2.82 nM and an IC50 ([3]; Homo sapiens, MDA-MB-231, 96 h) of 2.23 nM. The IC50 ([4]; Homo sapiens, SW-620, 96 h) was 5.49 nM, the IC50 ([6]; BT-474, 96 h) was 0.68 nM and the IC50 ([5]; Homo sapiens, NCI-H460, 96 h) was 9.4 nM.
For CC[C@H](C)[C@@H]([C@@H](CC(=O)N1C[C@H](OC)C[C@@H]1[C@H](OC)[C@@H](C)C(=O)NCCc1ccc(F)cc1)OC)N(C)C(=O)[C@@H](NC(=O)[C@@H](NC)C(C)C)C(C)C [Compound I-3, (S)—N-((3R,4S,5S)-1-((2R,4R)-2-((1R,2R)-3-((4-fluorophenethyl)amino)-1-methoxy-2-methyl-3-oxopropyl)-4-methoxypyrrolidin-1-yl)-3-methoxy-5-methyl-1-oxoheptan-4-yl)-N,3-dimethyl-2-((S)-3-methyl-2-(methylamino)butaneamido)butanamide], the IC50 ([6]; BT-474, 96 h) was 1.1 nM and the IC50 [7, 8] was 37.9 nM.
